Laboratory results taken from patent publication US20230085307A1, “PYRIDAZINONE COMPOUND AND HERBICIDE” (NISSAN CHEMICAL CORPORATION, priority 2019, published 2023).

What was measured:
[1] = test system: redroot pigweed; assay: Test Example 4: herbicidal effect by soil treatment (Table 19, symbol N); assay type: in vivo, redroot pigweed (Amaranthus retroflexus); conditions: amount of applied herbicide 320 g/ha
Summary of the method: (§1)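 Scoring uses the grading scale of an earlier test, three weeks post-application. Treatment consists of spraying a diluted emulsion formulation across the surface of sterilized diluvial soil in which seeds are buried near 1.5 cm deep; boxes are kept in a greenhouse between 25° C. and 30° C.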

[2] = test system: Chinese sprangletop; assay: Test Example 3: herbicidal effect by foliage application, Wagner pot (Table 18, symbol D); assay type: in vivo, chinese sprangletop (Leptochloa chinensis); conditions: 320 g/ha
Summary of the method: (§2)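 Plants were sown in alluvial soil held under 0.1–0.5 cm standing water and grown 14 days in a greenhouse at 25–30 °C. An emulsifiable formulation, water-diluted to the set dose, was then sprayed onto the foliage, and effects were scored three weeks later using previously defined criteria.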

[3] = test system: southern crabgrass; assay: Test Example 5: herbicidal effect by foliage application, plastic box (Table 20, symbol F); assay type: in vivo, southern crabgrass (Digitaria ciliaris); conditions: foliage application, 320 g/ha
Summary of the method: (§3)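 Post-emergence foliar test in sterilized diluvial soil. Compound applied as water-diluted emulsion at a predetermined rate to 14-day-old plants; evaluation at three weeks.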

[4] = test system: barnyard grass; assay: Test Example 4: herbicidal effect by soil treatment (Table 19, symbol H); assay type: in vivo, barnyard grass (Echinochloa crus-galli); conditions: amount of applied herbicide 320 g/ha
Summary of the method: as §1

[5] = test system: false cleavers; assay: Test Example 4: herbicidal effect by soil treatment (Table 19, symbol Q); assay type: in vivo, false cleavers (Galium spurium); conditions: amount of applied herbicide 320 g/ha
Summary of the method: as §1

[6] = test system: blackgrass; assay: Test Example 5: herbicidal effect by foliage application, plastic box (Table 20, symbol J); assay type: in vivo, blackgrass (Alopecurus myosuroides); conditions: foliage application, 320 g/ha
Summary of the method: as §3

[7] = test system: wild oat; assay: Test Example 5: herbicidal effect by foliage application, plastic box (Table 20, symbol I); assay type: in vivo, wild oat (Avena fatua); conditions: foliage application, 320 g/ha
Summary of the method: as §3

[8] = test system: redroot pigweed; assay: Test Example 5: herbicidal effect by foliage application, plastic box (Table 20, symbol N); assay type: in vivo, redroot pigweed (Amaranthus retroflexus); conditions: foliage application, 320 g/ha
Summary of the method: as §3

[9] = test system: Japanese bulrush; assay: Test Example 2: herbicidal activity, application during weed generation under submerged conditions (Table 17, symbol B); assay type: in vivo, Japanese bulrush (Schoenoplectus juncoides); conditions: AAH 320 g/ha; application during weed generation, submerged conditions
Summary of the method: (§4)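 3-wk visual-criteria score after one water-surface dose. Emulsion formulation, water-diluted to set rate; applied at 1–2 leaf stage; alluvial soil, 4 cm standing water; seeds co-sown; greenhouse 25–30° C.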

[10] = test system: persian speedwell; assay: Test Example 4: herbicidal effect by soil treatment (Table 19, symbol R); assay type: in vivo, Persian speedwell (Veronica persica); conditions: amount of applied herbicide 320 g/ha
Summary of the method: as §1

[11] = test system: lambsquarters; assay: Test Example 5: herbicidal effect by foliage application, plastic box (Table 20, symbol O); assay type: in vivo, lambsquarters (Chenopodium album); conditions: foliage application, 320 g/ha
Summary of the method: as §3

[12] = test system: barnyard grass; assay: Test Example 5: herbicidal effect by foliage application, plastic box (Table 20, symbol H); assay type: in vivo, barnyard grass (Echinochloa crus-galli); conditions: foliage application, 320 g/ha
Summary of the method: as §3

[13] = test system: velvetleaf; assay: Test Example 4: herbicidal effect by soil treatment (Table 19, symbol M); assay type: in vivo, velvetleaf (Abutilon theophrasti); conditions: amount of applied herbicide 320 g/ha
Summary of the method: as §1

[14] = test system: Italian ryegrass; assay: Test Example 4: herbicidal effect by soil treatment (Table 19, symbol K); assay type: in vivo, Italian ryegrass (Lolium multiflorum); conditions: amount of applied herbicide 320 g/ha
Summary of the method: as §1

[15] = test system: lambsquarters; assay: Test Example 4: herbicidal effect by soil treatment (Table 19, symbol O); assay type: in vivo, lambsquarters (Chenopodium album); conditions: amount of applied herbicide 320 g/ha
Summary of the method: as §1

[16] = test system: late watergrass; assay: Test Example 2: herbicidal activity, application during weed generation under submerged conditions (Table 17, symbol A); assay type: in vivo, late watergrass (Echinochloa oryzicola); conditions: AAH 320 g/ha; application during weed generation, submerged conditions
Summary of the method: as §4

[17] = test system: windgrass; assay: Test Example 5: herbicidal effect by foliage application, plastic box (Table 20, symbol L); assay type: in vivo, windgrass (Apera spica-venti); conditions: foliage application, 320 g/ha
Summary of the method: as §3

[18] = test system: green foxtail; assay: Test Example 5: herbicidal effect by foliage application, plastic box (Table 20, symbol G); assay type: in vivo, green foxtail (Setaria viridis); conditions: foliage application, 320 g/ha
Summary of the method: as §3

[19] = test system: oval-leafed pondweed; assay: Test Example 2: herbicidal activity, application during weed generation under submerged conditions (Table 17, symbol C); assay type: in vivo, oval-leafed pondweed (Monochoria vaginalis); conditions: AAH 320 g/ha; application during weed generation, submerged conditions
Summary of the method: as §4

[20] = test system: persian speedwell; assay: Test Example 5: herbicidal effect by foliage application, plastic box (Table 20, symbol R); assay type: in vivo, Persian speedwell (Veronica persica); conditions: foliage application, 320 g/ha
Summary of the method: as §3

[21] = test system: wild oat; assay: Test Example 4: herbicidal effect by soil treatment (Table 19, symbol I); assay type: in vivo, wild oat (Avena fatua); conditions: amount of applied herbicide 320 g/ha
Summary of the method: as §1

[22] = test system: false cleavers; assay: Test Example 5: herbicidal effect by foliage application, plastic box (Table 20, symbol Q); assay type: in vivo, false cleavers (Galium spurium); conditions: foliage application, 320 g/ha
Summary of the method: as §3

[23] = test system: green foxtail; assay: Test Example 4: herbicidal effect by soil treatment (Table 19, symbol G); assay type: in vivo, green foxtail (Setaria viridis); conditions: amount of applied herbicide 320 g/ha
Summary of the method: as §1

[24] = test system: southern crabgrass; assay: Test Example 4: herbicidal effect by soil treatment (Table 19, symbol F); assay type: in vivo, southern crabgrass (Digitaria ciliaris); conditions: amount of applied herbicide 320 g/ha
Summary of the method: as §1

[25] = test system: velvetleaf; assay: Test Example 5: herbicidal effect by foliage application, plastic box (Table 20, symbol M); assay type: in vivo, velvetleaf (Abutilon theophrasti); conditions: foliage application, 320 g/ha
Summary of the method: as §3

[26] = test system: Italian ryegrass; assay: Test Example 5: herbicidal effect by foliage application, plastic box (Table 20, symbol K); assay type: in vivo, Italian ryegrass (Lolium multiflorum); conditions: foliage application, 320 g/ha
Summary of the method: as §3

[27] = test system: chickweed; assay: Test Example 4: herbicidal effect by soil treatment (Table 19, symbol P); assay type: in vivo, common chickweed (Stellaria media); conditions: amount of applied herbicide 320 g/ha
Summary of the method: as §1

[28] = test system: rice flat sedge; assay: Test Example 3: herbicidal effect by foliage application, Wagner pot (Table 18, symbol E); assay type: in vivo, rice flat sedge (Cyperus iria); conditions: 320 g/ha
Summary of the method: as §2

[29] = test system: barnyard grass; assay: Test Example 3: herbicidal effect by foliage application, Wagner pot (Table 18, symbol H); assay type: in vivo, barnyard grass (Echinochloa crus-galli); conditions: 320 g/ha
Summary of the method: as §2

[30] = test system: chickweed; assay: Test Example 5: herbicidal effect by foliage application, plastic box (Table 20, symbol P); assay type: in vivo, common chickweed (Stellaria media); conditions: foliage application, 320 g/ha
Summary of the method: as §3

[31] = test system: windgrass; assay: Test Example 4: herbicidal effect by soil treatment (Table 19, symbol L); assay type: in vivo, windgrass (Apera spica-venti); conditions: amount of applied herbicide 320 g/ha
Summary of the method: as §1

[32] = evaluated three weeks after application

Cc1nn(C)c(=O)c(-c2c(-c3ccc4c(c3)OCC4)sc3ccccc23)c1O [1-085]
herbicidal effect rating, N: redroot pigweed [1]: 5 (Herbicidal rate of 90% or more (almost completely withered)) | herbicidal effect on D (Chinese sprangletop), rating 0-5 [2]: 4 (Herbicidal rate of 70% or more and less than 90%) | herbicidal effect grade, F: southern crabgrass ([3]; three weeks after application): 5 (Herbicidal rate of 90% or more (almost completely withered)) | herbicidal effect rating, H: barnyard grass [4]: 4 (Herbicidal rate of 70% or more and less than 90%) | herbicidal effect rating, Q: false cleavers [5]: 4 (Herbicidal rate of 70% or more and less than 90%) | herbicidal effect grade, J: blackgrass ([6]; three weeks after application): 4 (Herbicidal rate of 70% or more and less than 90%) | herbicidal effect grade, I: wild oat ([7]; three weeks after application): 4 (Herbicidal rate of 70% or more and less than 90%) | herbicidal effect grade, N: redroot pigweed ([8]; three weeks after application): 5 (Herbicidal rate of 90% or more (almost completely withered)) | herbicidal effect rating, B: Japanese bulrush [9]: 1 (Herbicidal rate of 5% or more and less than 20%) | herbicidal effect rating, R: persian speedwell [10]: 4 (Herbicidal rate of 70% or more and less than 90%) | herbicidal effect grade, O: lambsquarters ([11]; three weeks after application): 5 (Herbicidal rate of 90% or more (almost completely withered)) | herbicidal effect grade, H: barnyard grass ([12]; three weeks after application): 5 (Herbicidal rate of 90% or more (almost completely withered)) | herbicidal effect rating, M: velvetleaf [13]: 3 (Herbicidal rate of 40% or more and less than 70%) | herbicidal effect rating, K: Italian ryegrass [14]: 5 (Herbicidal rate of 90% or more (almost completely withered)) | herbicidal effect rating, O: lambsquarters [15]: 5 (Herbicidal rate of 90% or more (almost completely withered)) | herbicidal effect rating, A: late watergrass [16]: 1 (Herbicidal rate of 5% or more and less than 20%) | herbicidal effect grade, L: windgrass ([17]; three weeks after application): 5 (Herbicidal rate of 90% or more (almost completely withered)) | herbicidal effect grade, G: green foxtail ([18]; three weeks after application): 5 (Herbicidal rate of 90% or more (almost completely withered)) | herbicidal effect rating, C: oval-leafed pondweed [19]: 2 (Herbicidal rate of 20% or more and less than 40%) | herbicidal effect grade, R: persian speedwell ([20]; three weeks after application): 5 (Herbicidal rate of 90% or more (almost completely withered)) | herbicidal effect rating, I: wild oat [21]: 0 (Herbicidal rate of 5% or less (almost no effect)) | herbicidal effect grade, Q: false cleavers ([22]; three weeks after application): 5 (Herbicidal rate of 90% or more (almost completely withered)) | herbicidal effect rating, G: green foxtail [23]: 4 (Herbicidal rate of 70% or more and less than 90%) | herbicidal effect rating, F: southern crabgrass [24]: 5 (Herbicidal rate of 90% or more (almost completely withered)) | herbicidal effect grade, M: velvetleaf ([25]; three weeks after application): 5 (Herbicidal rate of 90% or more (almost completely withered)) | herbicidal effect grade, K: Italian ryegrass ([26]; three weeks after application): 5 (Herbicidal rate of 90% or more (almost completely withered)) | herbicidal effect rating, P: chickweed [27]: 4 (Herbicidal rate of 70% or more and less than 90%) | herbicidal effect on E (rice flat sedge), rating 0-5 [28]: 5 (Herbicidal rate of 90% or more (almost completely withered)) | herbicidal effect on H (barnyard grass), rating 0-5 [29]: 5 (Herbicidal rate of 90% or more (almost completely withered)) | herbicidal effect grade, P: chickweed ([30]; three weeks after application): 5 (Herbicidal rate of 90% or more (almost completely withered))

CCCC(=O)Oc1c(C)nn(C)c(=O)c1-c1c(-c2ccc3c(c2)OCO3)sc2ccc(Cl)cc12 [2-126]
N: redroot pigweed, herbicidal effect rating [1]: 0 (Herbicidal rate of 5% or less (almost no effect)) | herbicidal effect on F: southern crabgrass [3, 32]: 0 (Herbicidal rate of 5% or less (almost no effect)) | H: barnyard grass, herbicidal effect rating [4]: 0 (Herbicidal rate of 5% or less (almost no effect)) | Q: false cleavers, herbicidal effect rating [5]: 0 (Herbicidal rate of 5% or less (almost no effect)) | herbicidal effect on J: blackgrass [6, 32]: 0 (Herbicidal rate of 5% or less (almost no effect)) | herbicidal effect on I: wild oat [7, 32]: 0 (Herbicidal rate of 5% or less (almost no effect)) | herbicidal effect on N: redroot pigweed [8, 32]: 1 (Herbicidal rate of 5% or more and less than 20%) | L: windgrass, herbicidal effect rating [31]: 0 (Herbicidal rate of 5% or less (almost no effect)) | herbicidal effect rating, B: Japanese bulrush [9]: 0 (Herbicidal rate of 5% or less (almost no effect)) | R: persian speedwell, herbicidal effect rating [10]: 4 (Herbicidal rate of 70% or more and less than 90%) | herbicidal effect on O: lambsquarters [11, 32]: 3 (Herbicidal rate of 40% or more and less than 70%) | herbicidal effect on H: barnyard grass [12, 32]: 0 (Herbicidal rate of 5% or less (almost no effect)) | M: velvetleaf, herbicidal effect rating [13]: 0 (Herbicidal rate of 5% or less (almost no effect)) | K: Italian ryegrass, herbicidal effect rating [14]: 0 (Herbicidal rate of 5% or less (almost no effect)) | O: lambsquarters, herbicidal effect rating [15]: 2 (Herbicidal rate of 20% or more and less than 40%) | herbicidal effect rating, A: late watergrass [16]: 0 (Herbicidal rate of 5% or less (almost no effect)) | herbicidal effect on L: windgrass [17, 32]: 0 (Herbicidal rate of 5% or less (almost no effect)) | herbicidal effect on G: green foxtail [18, 32]: 0 (Herbicidal rate of 5% or less (almost no effect)) | herbicidal effect rating, C: oval-leafed pondweed [19]: 2 (Herbicidal rate of 20% or more and less than 40%) | herbicidal effect on R: persian speedwell [20, 32]: 5 (Herbicidal rate of 90% or more (almost completely withered)) | I: wild oat, herbicidal effect rating [21]: 0 (Herbicidal rate of 5% or less (almost no effect)) | herbicidal effect on Q: false cleavers [22, 32]: 2 (Herbicidal rate of 20% or more and less than 40%) | G: green foxtail, herbicidal effect rating [23]: 0 (Herbicidal rate of 5% or less (almost no effect)) | F: southern crabgrass, herbicidal effect rating [24]: 0 (Herbicidal rate of 5% or less (almost no effect)) | herbicidal effect on M: velvetleaf [25, 32]: 3 (Herbicidal rate of 40% or more and less than 70%) | herbicidal effect on K: Italian ryegrass [26, 32]: 0 (Herbicidal rate of 5% or less (almost no effect)) | P: chickweed, herbicidal effect rating [27]: 3 (Herbicidal rate of 40% or more and less than 70%) | herbicidal effect on P: chickweed [30, 32]: 2 (Herbicidal rate of 20% or more and less than 40%)
